Measured values from ChEMBL document CHEMBL5532705, “Bioactivity-Based Molecular Networking-Guided Isolation of Epicolidines A-C from the Endophytic Fungus Epicoccum sp. 1-042” (2024).
Numbered stars: 1 amine (or outer) side, 2 acyl side, 3 side chain; on linkers, the order of the positions; unused ones are H or OH. Bridge positions count the residues as written; N and C are the ends. Square brackets hold non-standard residues; d marks the D form. Peptide text beside a SMILES is read from it. * marks the point of attachment. X1 = O=C1C[C@@H](C(=O)[*:2])N([*:1])C[C@H]1CS[C@@H]1CN2CCC1CC2; NMePhe(4-NMe2) = CN[C@@H](Cc1ccc(N(C)C)cc1)C(=O)O; Picolinoyl(3-OH) = O=C(c1ncccc1O)*; Phg = N[C@H](C(=O)O)c1ccccc1; dAbu = CC[C@@H](N)C(=O)O

What was measured:
Type in all cases: functional
[1] = tested on: Escherichia coli; experiment: Antimicrobial activity against Escherichia coli ATCC 25922 assessed as inhibition of microbial growth incubated for 16 hrs by broth microdilution method
[2] = tested on: Enterococcus faecium; experiment: Antimicrobial activity against vancomycin resistant Enterococcus faecium 310682 assessed as inhibition of microbial growth incubated for 16 hrs by broth microdilution method
[3] = tested on: Staphylococcus aureus; experiment: Antimicrobial activity against Staphylococcus aureus ATCC 29213 assessed as inhibition of microbial growth incubated for 16 hrs by broth microdilution method
[4] = tested on: Enterococcus faecium; experiment: Antimicrobial activity against Enterococcus faecium ATCC 35667 assessed as inhibition of microbial growth incubated for 16 hrs by broth microdilution method
[5] = tested on: Pseudomonas aeruginosa; experiment: Antimicrobial activity against Pseudomonas aeruginosa ATCC 27853 assessed as inhibition of microbial growth incubated for 16 hrs by broth microdilution method
[6] = tested on: Staphylococcus aureus; experiment: Antimicrobial activity against methicillin resistant Staphylococcus aureus 181404 assessed as inhibition of microbial growth incubated for 16 hrs by broth microdilution method
[7] = tested on: Klebsiella pneumoniae; experiment: Antimicrobial activity against Klebsiella pneumoniae ATCC 700603 assessed as inhibition of microbial growth incubated for 16 hrs by broth microdilution method
[8] = tested on: Enterococcus faecium; experiment: Antimicrobial activity against vancomycin resistant Enterococcus faecium 310682 assessed as inhibition of microbial growth incubated for 16 hrs in presence of dalfopristin by broth microdilution method
[9] = tested on: Candida tropicalis; experiment: Antimicrobial activity against Candida tropicalis ATCC 1369 assessed as inhibition of microbial growth incubated for 16 hrs by broth microdilution method
[10] = tested on: Candida albicans; experiment: Antimicrobial activity against Candida albicans ATCC 10231 assessed as inhibition of microbial growth incubated for 16 hrs by broth microdilution method
[11] = tested on: Enterococcus faecium; experiment: Antibacterial activity against vancomycin resistant Enterococcus faecium 310682 infected in Galleria mellonella last-instar larvae assessed as survival at 0.20 mg/kg measured after 1 day (reference value: 30%); settings: Enterococcus faecium, 310682, 24 h
[12] = tested on: Enterococcus faecium; experiment: Antibacterial activity against vancomycin resistant Enterococcus faecium 310682 infected in Galleria mellonella last-instar larvae assessed as survival at 10 mg/kg measured after 1 day (reference value: 30%); settings: Enterococcus faecium, 310682, 24 h
[13] = tested on: Enterococcus faecium; experiment: Antibacterial activity against vancomycin resistant Enterococcus faecium 310682 infected in Galleria mellonella last-instar larvae assessed as survival at 1 mg/kg measured after 1 day (reference value: 30%); settings: Enterococcus faecium, 310682, 24 h
[14] = tested on: Enterococcus faecium; experiment: Antimicrobial activity against vancomycin resistant Enterococcus faecium 310682 assessed as inhibition of microbial growth incubated for 16 hrs in presence of quinupristin by broth microdilution method

C[C@@H](O)[C@H]1C(=O)N2C(C(=O)O)=C(S[C@@H]3CN[C@H](C(=O)N(C)C)C3)[C@H](C)[C@H]12 [MEROPENEM]
MIC [1]: 0.5 mg/L | MIC [2]: > 16 mg/L | MIC [3]: 2 mg/L | MIC [4]: > 16 mg/L | MIC [5]: 16 mg/L | MIC [6]: > 16 mg/L | MIC [7]: 2 mg/L

CC[C@H]1NC(=O)[C@@H](NC(=O)c2ncccc2O)[C@@H](C)OC(=O)[C@H](c2ccccc2)NC(=O)[C@@H]2CC(=O)[C@H](CS[C@@H]3CN4CCC3CC4)CN2C(=O)[C@H](Cc2ccc(N(C)C)cc2)N(C)C(=O)[C@@H]2CCCN2C1=O [QUINUPRISTIN] ({Picolinoyl(3-OH)}-T[dAbu]P[NMePhe(4-NMe2)][X1][Phg]; ester 1-C)
MIC [8]: 0.5 mg/L

CN[C@H](CC(C)C)C(=O)N[C@H]1C(=O)N[C@@H](CC(N)=O)C(=O)N[C@H]2C(=O)N[C@H]3C(=O)N[C@H](C(=O)N[C@H](C(=O)O)c4cc(O)cc(O)c4-c4cc3ccc4O)[C@H](O)c3ccc(c(Cl)c3)Oc3cc2cc(c3O[C@@H]2O[C@H](CO)[C@@H](O)[C@H](O)[C@H]2O[C@H]2C[C@](C)(N)[C@H](O)[C@H](C)O2)Oc2ccc(cc2Cl)[C@H]1O [VANCOMYCIN]
MIC [2]: > 16 mg/L | MIC [6]: 0.25 mg/L

OC(Cn1cncn1)(Cn1cncn1)c1ccc(F)cc1F [FLUCONAZOLE]
MIC [9]: 2 mg/L | MIC [10]: 8 mg/L

CC[C@H](C)[C@@H]1N(C)C(=O)[C@H]2C(=O)[C@H]3[C@@H]4[C@H](C)C[C@H](C)C[C@@H]4C=C[C@@H]3[C@@]3(C)O[C@]21O[C@H]3C
MIC [1]: > 128 mg/L | MIC [2]: 16 mg/L | MIC [3]: 64 mg/L | MIC [9]: > 128 mg/L | MIC [4]: 64 mg/L | MIC [5]: > 128 mg/L | MIC [6]: 16 mg/L | MIC [10]: > 128 mg/L | MIC [7]: > 128 mg/L

CC[C@H](C)[C@H]1C(=O)/C(=C(/O)[C@H]2[C@@H]3[C@H](C)C[C@H](C)C[C@@H]3C=C[C@@H]2[C@]2(C)O[C@H]2C)C(=O)N1C
MIC [1]: > 128 mg/L | survival at 0.2 mg/kg [11]: 0% | MIC [2]: 0.25 mg/L | MIC [3]: 0.25 mg/L | MIC [9]: > 128 mg/L | MIC [4]: 1 mg/L | MIC [5]: > 128 mg/L | MIC [6]: 0.5 mg/L | survival at 10 mg/kg [12]: 100% | survival at 1 mg/kg [13]: 40% | MIC [10]: 8 mg/L | MIC [7]: > 128 mg/L

C=C([C@H](C)O)[C@H]1C=C[C@H]2C[C@@H](C)C[C@@H](C)[C@H]2[C@@H]1/C(O)=C1\C(=O)[C@H]([C@@H](C)CC)N(C)C1=O
MIC [1]: > 128 mg/L | MIC [2]: 2 mg/L | MIC [3]: 2 mg/L | MIC [9]: > 128 mg/L | MIC [4]: 8 mg/L | MIC [5]: > 128 mg/L | MIC [6]: 2 mg/L | MIC [10]: 128 mg/L | MIC [7]: > 128 mg/L

CCN(CC)CCS(=O)(=O)[C@@H]1CCN2C(=O)c3coc(n3)CC(=O)C[C@H](O)/C=C(C)/C=C/CNC(=O)/C=C/[C@@H](C)[C@@H](C(C)C)OC(=O)[C@@H]12 [DALFOPRISTIN]
MIC [14]: 0.5 mg/L
